# According to publication PMC11801377, “A uniquely efficacious type of CFTR corrector with complementary mode of action” (Science Advances, 2024):
# Key:
# [1] = molecular target: T1, F508del-CFTR (Homo sapiens, UniProt P13569, DEL508-508); experiment: Pharmacochaperone trafficking assay: F508del-CFTR cell surface expression in U2OS cells; type: cell-based; set-up: host or cells: U2OS (PathHunter U2OS-F508del-CFTR MEM-EA)
# Method: This assay was adapted from the DiscoverX PathHunter pharmacochaperone trafficking assay, which is based on the enzyme fragment complementation technique. Briefly, the U2OS-F508del-CFTR cell line (DiscoveRx, #93-0987C3) is engineered to coexpress (i) human F508del-CFTR tagged with a Prolink (PK = short β-galactosidase fragment) and (ii) the remainder of the β-galactosidase enzyme [enzyme acceptor (EA)] localized to the PM. Incubation with compounds that increase trafficking of PK-tagged F508del-CFTR to the PM will lead to complementation of the EA fragment to form a functional β-galactosidase enzyme, which is quantified by a chemiluminescence reaction reporting cell surface CFTR expression. The same principle applies to the counterscreen using U2OS-ADRB2(W158A) cells (DiscoveRx, #93-0986C3). Freshly thawed U2OS-F508del-CFTR and U2OS-ADRB2(W158A) were seeded at 3500 or 5000 cells per well, respectively, in 20 μl per well of cell assay medium [McCoy (Life Technologies), 10% FBS, penicillin (100 U/ml), and streptomycin ([…])] in a 384 white low-volume plate (Corning). Predilutions of compounds in dimethyl sulfoxide (DMSO) were prepared in a 384-well polypropylene plate using an automated liquid-handling system. Dilution series were then transferred into cell assay medium in a polypropylene 384-well plate (Greiner) to obtain 5× concentrated aqueous working stocks. Five hours after cell seeding, 5× working stocks (5 μl per well) were added to the cells (20 μl per well) for an incubation overnight at 37°C. The next day, after 2 hours at room temperature, the cell plates were incubated with 10 μl of Flash detection reagent (#93-0247, DiscoverX) for 30 min, and chemiluminescence signals were detected with a microplate reader (Synergy MX, Agilent BioTek). Chemiluminescence data were normalized to the signal of basal vehicle-treated cells, and mean chemiluminescence values were converted to concentration-response curves for determination of EC50 and Emax values (GraphPad Prism).
# Both above described cell lines [U2OS-F508del-CFTR and U2OS-ADRB2(W158A)] and assays were also used in the high-throughput screening campaign in which compounds were tested at 10 μM concentration with LUM (3 μM) or propranolol (100 nM) serving as 100% controls.
# [2] = molecular target: T2, MSD2-NBD2 fragment (M837-L1480-CFTR) (Homo sapiens, UniProt P13569); experiment: Truncated CFTR construct levels (immunoblotting), MSD2-NBD2 fragment; type: cell-based; conditions: HEK-TREx cells, 40 hours; C4a 10 μM
# T2 construct: expressed in transfected cells; host or cells: T-REx HEK293
# T2 sequence (P13569 837-1480): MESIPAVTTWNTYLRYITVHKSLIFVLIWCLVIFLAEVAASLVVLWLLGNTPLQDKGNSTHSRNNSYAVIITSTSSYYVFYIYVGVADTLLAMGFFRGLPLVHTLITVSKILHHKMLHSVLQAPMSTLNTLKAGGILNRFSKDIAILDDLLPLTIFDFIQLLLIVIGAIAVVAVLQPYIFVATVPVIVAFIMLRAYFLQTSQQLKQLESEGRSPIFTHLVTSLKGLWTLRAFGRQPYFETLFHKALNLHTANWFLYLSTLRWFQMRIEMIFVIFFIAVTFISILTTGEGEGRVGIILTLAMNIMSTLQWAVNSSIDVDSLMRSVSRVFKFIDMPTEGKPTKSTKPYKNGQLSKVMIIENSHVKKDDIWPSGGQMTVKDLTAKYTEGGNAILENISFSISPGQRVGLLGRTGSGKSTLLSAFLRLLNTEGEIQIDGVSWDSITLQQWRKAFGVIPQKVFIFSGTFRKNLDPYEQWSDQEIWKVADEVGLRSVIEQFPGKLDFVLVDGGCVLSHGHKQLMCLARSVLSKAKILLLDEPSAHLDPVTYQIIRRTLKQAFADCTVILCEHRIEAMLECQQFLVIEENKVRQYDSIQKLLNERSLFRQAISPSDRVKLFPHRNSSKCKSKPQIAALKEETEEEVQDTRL
# Text: (§1) The human CFTR expressing HEK cell pools with the mutations described below were generated by integrase-mediated homologous recombination of the CFTR sequence into the T-REx HEK293 background (Thermo Fisher Scientific). This expression system allows the tetracycline-inducible expression of genes of interest from one defined insertion site. Parental T-REx-HEK293 cells were cultivated in growth medium: Dulbecco’s modified Eagle’s medium + GlutaMAX-I (#31966, Life Technologies), 10% dialyzed FBS (Gibco, #26400), penicillin (100 U/ml), streptomycin (100 μg/ml), hygromycin B (0.1 mg/ml; Life Technologies), blasticidin (5 μg/ml; Invitrogen, #R210-01), and 0.1 mM nonessential amino acid solution (Invitrogen, #11140-035). Recombinant T-REx-HEK-CFTR cells were generated by lipofectamine transfection (Life Technologies) of plasmids containing mutated versions of CFTR (RefSeq NM_000492) and then cultivated in selection medium [growth medium containing Geneticin (1 mg/ml) (Invitrogen, #10131-027) instead of hygromycin]. The plasmid constructs were synthetized by GENEART (Thermo Fisher Scientific) and designed with the WT CFTR intron 5 to 6 (880 nucleotides) to prevent leaky expression issues during the cloning process in bacteria. […]
# [3] = test system: CFTR; set-up: method as in earlier work; conditions: ref [27] (GLPG-2737); ref [21], [26], [27] (ELX); cited from earlier work
# [4] = molecular target: T1, F508del-CFTR; experiment: Halide-sensitive YFP quenching assay in U2OS-F508del-CFTR-YFP cells; type: cell-based; set-up: host or cells: U2OS (PathHunter U2OS-F508del-CFTR MEM-EA)
# Method: U2OS-F508del-CFTR cells expressing Topaz-YFP F46L/H148Q/I152L were seeded at 20,000 cells per well into 384-well black clear-bottom plates in 40 μl per well growth medium (Mc COY’s 5A, Gibco, 10% FBS, penicillin/streptomycin), containing the various CFTR correctors at the indicated concentrations. The cells were coincubated with the compounds for 24 hours (37°C, 5% CO2). The next day, plates were washed twice with PBS^+ (55 μl per well; PBS containing 0.9 mM Ca^2+ and 0.5 mM Mg^2+). PBS^+ was fully removed, and cells were supplemented with 15 μl PBS^+. Then, 5 μl of 4× concentrated stocks of IVA or vehicle in dilution buffer [PBS^+, 0.1 μM forskolin, and 0.2% bovine serum albumin (fatty acid free) (pH 7.4)] were added and incubated for 30 min in the dark. For experiments with I-172 (Sigma- Aldrich), the inhibitor was added to the mix with either IVA or vehicle to reach a final concentration in cells of 20 μM. Then, plates were transferred to the FLIPR Tetra (fluorescence imaging plate reader; Molecular Devices: excitation: 470 to 495 nm; emission: 526 to 585 nm), baseline fluorescence reading of the YFP signal was performed for 6 s (10 × 0.6 s intervals) after which 25 μl of iodide buffer [137 mM NaI, 2.7 mM KCl, 1.5 mM KH2PO4, 8.1 mM Na2HPO4, 1 mM CaCl2, and 0.5 mM MgCl2 (pH 7.4)] was added, and fluorescence reading was continued for 70 s (50 × 0.6 s intervals; 20 x 2 s intervals) to assess YFP quenching through CFTR-mediated iodide influx. For analysis, fluorescence traces were aligned and normalized at the last time point before iodide addition (normalized fluorescence = 1). Normalized fluorescence values obtained 20 s after the beginning of the assay were used to assess the degree of YFP quenching, i.e., CFTR function (see fig. S1J). […] Then, plates were read and analyzed as above. […] Then, plates were transferred to the FLIPR Tetra and read and analyzed as above.
# [5] = test system: F508del.K14A-CFTR; experiment: Site-directed mutagenesis immunoblotting, HEK-TREx, F508del.K14A-CFTR; type: cell-based, human; conditions: 40 h, 2 μM
# Text: as §1
# [6] = test system: F508del.L15W-CFTR; experiment: Site-directed mutagenesis immunoblotting, HEK-TREx, F508del.L15W-CFTR; type: cell-based, human; conditions: 40 h, 2 μM
# Text: as §1
# [7] = U2OS cells, overnight treatment
# T1 sequence (P13569 with tags, fused parts or gaps DEL508-508): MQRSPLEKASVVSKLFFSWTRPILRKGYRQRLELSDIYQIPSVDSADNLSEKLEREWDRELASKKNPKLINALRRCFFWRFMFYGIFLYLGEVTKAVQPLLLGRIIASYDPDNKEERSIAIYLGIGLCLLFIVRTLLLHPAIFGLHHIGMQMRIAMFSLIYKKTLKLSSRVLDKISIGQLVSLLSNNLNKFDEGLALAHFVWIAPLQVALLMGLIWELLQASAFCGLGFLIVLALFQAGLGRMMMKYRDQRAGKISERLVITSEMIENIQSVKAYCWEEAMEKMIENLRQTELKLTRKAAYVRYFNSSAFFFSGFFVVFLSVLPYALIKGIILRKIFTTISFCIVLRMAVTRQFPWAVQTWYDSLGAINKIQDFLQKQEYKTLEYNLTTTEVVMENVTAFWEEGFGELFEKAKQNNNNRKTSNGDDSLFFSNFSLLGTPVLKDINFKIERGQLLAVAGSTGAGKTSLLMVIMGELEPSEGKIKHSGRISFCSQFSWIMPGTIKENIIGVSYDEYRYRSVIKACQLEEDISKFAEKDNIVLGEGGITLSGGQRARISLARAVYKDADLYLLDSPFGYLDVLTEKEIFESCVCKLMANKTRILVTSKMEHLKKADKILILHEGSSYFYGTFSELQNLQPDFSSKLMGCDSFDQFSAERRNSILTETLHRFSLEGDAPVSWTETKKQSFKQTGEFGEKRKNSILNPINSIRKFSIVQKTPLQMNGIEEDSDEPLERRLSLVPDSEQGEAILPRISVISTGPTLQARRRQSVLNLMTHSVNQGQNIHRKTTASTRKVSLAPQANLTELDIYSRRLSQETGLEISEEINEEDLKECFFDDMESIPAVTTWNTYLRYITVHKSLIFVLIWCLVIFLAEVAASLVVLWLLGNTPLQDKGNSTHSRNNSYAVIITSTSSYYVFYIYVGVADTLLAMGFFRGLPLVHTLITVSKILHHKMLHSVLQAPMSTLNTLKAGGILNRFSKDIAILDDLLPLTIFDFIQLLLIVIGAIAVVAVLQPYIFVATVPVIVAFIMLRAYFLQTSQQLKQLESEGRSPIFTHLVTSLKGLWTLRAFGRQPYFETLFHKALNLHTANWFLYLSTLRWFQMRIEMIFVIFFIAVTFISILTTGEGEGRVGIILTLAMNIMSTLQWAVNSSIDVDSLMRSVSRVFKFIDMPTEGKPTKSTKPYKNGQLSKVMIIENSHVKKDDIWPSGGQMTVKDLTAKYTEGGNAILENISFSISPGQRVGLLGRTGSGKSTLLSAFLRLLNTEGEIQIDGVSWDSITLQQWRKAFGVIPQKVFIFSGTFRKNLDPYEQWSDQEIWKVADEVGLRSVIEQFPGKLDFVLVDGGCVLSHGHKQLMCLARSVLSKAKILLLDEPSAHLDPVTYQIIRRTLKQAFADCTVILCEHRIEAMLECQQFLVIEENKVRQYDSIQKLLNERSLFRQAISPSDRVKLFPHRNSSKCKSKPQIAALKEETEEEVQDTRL
smiles,measurement,setting,value
"C[C@@H]1CN(c2nc(-n3ccc(OCCC4(C(F)(F)F)CC4)n3)ccc2C(=O)NS(=O)(=O)c2ccccc2)C(C)(C)C1 [BAM, bamocaftor]",maximal F508del-CFTR surface expression (Emax),[1]; [7],seven- to ninefold
"COc1ccc(Cl)cc1Nc1nc(-c2sc(NC(=O)c3ccccc3)nc2C)cs1 [C4a, corrector 4a]",expression of the MSD2-NBD2 fragment,[2],increased the expression of its glycosylated and nonglycosylated forms
same,maximal F508del-CFTR surface expression (Emax),[1]; [7],four- to fivefold
same,additivity in F508del-CFTR surface expression,[1]; applied on top of / titrated onto IDOR-4,full additivity or even synergy
"O=C(O)c1ccc([C@H]2C[C@@H](NC(=O)C3(c4ccc5c(c4)OC(F)(F)O5)CC3)c3ccc(OC(F)F)cc3O2)cc1 [GAL, galicaftor]",maximal F508del-CFTR surface expression (Emax),[1]; [7],four- to fivefold
COC1CCN(C2CCN(c3cc(C(=O)NS(=O)(=O)N(C)C)nc4c3c(C3CCC3)nn4-c3ccc(F)cc3)CC2)CC1 [GLPG-2737],acute effect on CFTR currents,[3],acute inhibitory
O=C(O)c1ccc(/C=C2\SC(=S)N(c3cccc(C(F)(F)F)c3)C2=O)cc1 [I-172],effect on corrector-induced YFP quenching responses,[4]; I-172 20 μM,blocked
CC(C)CC1C(=O)N(C)CC(=O)NC(Cc2ccccc2)COc2ccccc2C(=O)NC(C(=O)NCCc2ccccc2)CC(=O)N1C (stereo not drawn) [IDOR-0],EC50,[1]; [7],1600 nM
same,maximal F508del-CFTR surface expression (Emax),[1]; [7],3 fold over baseline
COc1nc(C)cc2c1C(=O)NC(C(=O)NCCc1cccc(N=[N+]=[N-])c1)CC(=O)N(C)C(CC(C)C)C(=O)N(C)C(CC1CCCC1)C(=O)NC(Cc1ccccc1)CO2 (stereo not drawn) [IDOR-6A],weaker correction by macrocycles as compared to [LUM + BAM],[5],two- to fourfold
same,correction by macrocycles versus [LUM + BAM],[6],little difference
"CC(C)(C)c1cc(C(C)(C)C)c(NC(=O)c2c[nH]c3ccccc3c2=O)cc1O [IVA, ivacaftor]",EC80 of potentiator,[4]; concentration used as ~EC80,~2 nM
